Assay results published in publication PMC7175277, “Hydroxylamine Analogue of Agmatine: Magic Bullet for Arginine Decarboxylase” (Biomolecules, 2020).
Entries after “also recorded” stand apart in the source; their conditions may differ.

Key:
[1] = system: mammalian ODC; design: method as in PMID 3841480, PMID 1573631; settings: cited from earlier work
[2] = system: Acremonium chrysogenum high-cephalosporin-yielding (HY) RNCM F-4081D; test: Fungal growth inhibition (drop-dilution, CD agar), HY strain; format: cell-based
Source text: (§1) Two strains of Acremonium chrysogenum were used in this study: the wild-type (Brotzu) isolate ATCC 11550 (WT) and high-cephalosporin-yielding RNCM F-4081D (HY), derived from the WT [37]. The cultivation conditions were the same as previously described. The filamentous fungi were cultivated on agarized Czapek-Dox (CD) medium (30 g/L sucrose, 2 g/L NaNO3, 1 g/L K2HPO4, 0.5 g/L MgSO4×7 H2O, 0.5 g/L KCl, 0.01 g/L FeSO4×7 H2O, 20 g/L agar, pH 7.0–7.4). To determine the toxic effect of AO-Agm, APA, DFMA and DFMO on the growth of fungal cells the drop-dilution method was used with some modifications as described earlier. Cells were collected from agar slants and diluted with 0.9% NaCl solution up to OD600 = 0.5 (basic concentration), followed by serial tenfold dilutions with the same solution. […] The inoculated Petri dishes were incubated for 21 days at 26 °C. The inhibitory effects of the compounds were measured every three days after inoculation and evaluated by measuring the ratio of colony growth on agarized CD medium supplemented with AO-Agm, APA, DFMA, or DFMO to the growth in the control (agarized CD medium without any additions). The formula: growth inhibition % = [(Dc − Dt)/Dc] × 100, where Dc indicates the colony diameter in control set, and Dt indicates the colony diameter in the treatment set that was used to determine the percent of fungal growth inhibition. The data recorded were measured in triplicate and repeated at least twice.

[3] = system: Acremonium chrysogenum wild-type (WT) ATCC 11550; test: Fungal growth inhibition (drop-dilution, CD agar), WT strain; format: cell-based
Source text: as §1

[4] = molecular target: T1, E. coli ADC (Escherichia coli, UniProt P21170); test: E. coli ADC activity assay (HPLC of agmatine); format: biochemical; settings: 0.1 mM PLP; 15 min preincubation; 0.15 mM L-Arg
T1 construct: The kinetic parameters determined for the partially purified biosynthetic ADC from E. coli; endogenous in cells; host or cells: E. coli DH5α (39-53% ammonium sulphate fraction of the lysate, desalted)
T1 sequence (P21170 1-658): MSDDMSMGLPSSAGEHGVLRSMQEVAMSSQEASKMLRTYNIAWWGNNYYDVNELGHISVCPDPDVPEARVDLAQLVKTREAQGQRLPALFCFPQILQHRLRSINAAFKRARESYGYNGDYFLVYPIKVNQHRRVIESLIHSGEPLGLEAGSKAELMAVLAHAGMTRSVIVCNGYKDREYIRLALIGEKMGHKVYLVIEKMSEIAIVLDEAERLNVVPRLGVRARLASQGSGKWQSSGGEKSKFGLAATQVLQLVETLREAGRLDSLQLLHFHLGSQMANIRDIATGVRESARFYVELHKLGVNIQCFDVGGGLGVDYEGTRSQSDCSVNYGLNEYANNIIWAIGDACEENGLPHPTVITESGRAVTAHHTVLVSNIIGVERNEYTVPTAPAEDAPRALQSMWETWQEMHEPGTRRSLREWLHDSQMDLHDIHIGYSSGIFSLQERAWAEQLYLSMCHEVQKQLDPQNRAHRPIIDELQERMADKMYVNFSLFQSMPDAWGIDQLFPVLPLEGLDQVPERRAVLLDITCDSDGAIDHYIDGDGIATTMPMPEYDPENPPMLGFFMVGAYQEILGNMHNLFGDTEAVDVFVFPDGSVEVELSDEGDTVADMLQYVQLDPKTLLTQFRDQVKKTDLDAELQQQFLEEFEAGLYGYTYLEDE
Experimental: The purification was performed using a modified procedure of earlier publication. E. coli strain DH5α was grown in Luria-Bertani broth at +37 °C with shaking (200 rpm) overnight. The cells were collected by centrifugation and the pellet was homogenized with Potter-Elvehjem in 10 volumes (w/v) of ice-cold 50 mM Tris-HCl pH 7.4, 1 mM DTT. The cell debris was removed by centrifugation at 12,000 g for 30 min at +4 °C. Solid (NH4)2SO4 was added to the supernatant, and the pellet precipitating between 39% and 53% saturation was separated. The precipitate was resuspended in ice-cold buffer containing 50 mM Tris-HCl pH 7.4 and 1 mM DTT and desalted by passage through Sephadex G-25 column (NAP-10 column, GE Healthcare). The protein concentration was measured with Bio-Rad protein reagent, and the partially purified enzyme preparation was mixed with 20% glycerol and aliquoted for storage at −80 °C.
[…] The ODC reaction mixture contained 50 mM Tris-HCl pH 7.8, 1 mM EDTA, 2.4 mM DTT, 0.1 mM PLP and 20 μg of partially purified enzyme preparation. The mixtures were either preincubated or not preincubated for 15 min at +40 °C in the presence of the inhibitor, after which the reaction was started by the addition of 18 μL of 10× substrate (L-Arg for ADC and L-Orn for ODC). After incubation for 30 min (ADC) or 20 min (ODC) at +40 °C, 20 μL of 50% sulphosalicylic acid containing 50 μM diaminoheptane (internal standard) was added and the samples were analyzed for the content of agmatine (ADC) and Put (ODC) with HPLC as described previously. The kinetic parameters and IC50 values were determined with the aid of GraphPad Prism version 5.03 using nonlinear regression analysis.

[5] = design: method as in PMID 7896733; settings: 48 h; absence of amine oxidase inhibitor; cited from earlier work
[6] = molecular target: T1, E. coli ADC; design: method as in PMID 4571773; settings: PLP binding to the apo-enzyme; cited from earlier work
[7] = molecular target: T2, mouse kidney ODC (Mus musculus, UniProt P00860); design: method as in PMID 6810923; settings: reversibly bound PLP; cited from earlier work
T2 construct: Aliquots of the supernatant were mixed with 1–5000 μM of AO-Agm and the ODC assay was carried out; from tissue; host or cells: C57Bl/6J male mouse kidney, 12,000 g supernatant of the homogenate
T2 sequence (P00860 1-461): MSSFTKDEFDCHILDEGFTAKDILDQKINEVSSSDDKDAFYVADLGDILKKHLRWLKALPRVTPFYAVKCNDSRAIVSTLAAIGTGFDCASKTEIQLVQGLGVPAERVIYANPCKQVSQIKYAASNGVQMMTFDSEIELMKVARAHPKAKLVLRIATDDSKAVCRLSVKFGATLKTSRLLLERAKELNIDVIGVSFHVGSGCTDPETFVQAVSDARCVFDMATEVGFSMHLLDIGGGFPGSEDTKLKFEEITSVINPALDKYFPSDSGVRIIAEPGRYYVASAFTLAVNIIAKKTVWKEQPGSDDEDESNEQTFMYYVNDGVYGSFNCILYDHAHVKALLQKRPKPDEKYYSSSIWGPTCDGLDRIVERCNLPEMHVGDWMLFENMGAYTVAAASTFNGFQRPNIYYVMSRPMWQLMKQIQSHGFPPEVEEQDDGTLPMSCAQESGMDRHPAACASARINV

| SMILES | Concentrations inhibiting mammalian ODC [1] | Growth inhibition compared with 5 mM ([2]; HY strain, 1 mM inhibitor) | inhibition at 5000 µM ([2]; Hapsidospora chrysogena, 336 h, read-out: Growth inhibition) | Growth of WT strain ([3]; 5 mM inhibitor) | Effect of 0.5 mM Spd on the growth arrest caused by the inhibitor ([3]; 5 mM inhibitor + 0.5 mM Spd) | inhibition at 1000 µM ([3]; Hapsidospora chrysogena, ATCC11550, 1 mM inhibitor, 17th day after inoculation) | inhibition at 5000 µM ([3]; Hapsidospora chrysogena, ATCC11550, 336 h, 5 mM inhibitor, 14 days after inoculation on CD medium) | ADC inhibition relative to AO-Agm (weaker) [4] | IC50 [4] | Level remaining in the cell culture medium, of its initial concentration [5] | Km [6] | Km [7] |
| --- | --- | --- | --- | --- | --- | --- | --- | --- | --- | --- | --- | --- |
| NCCCON [APA, 1-aminooxy-3-aminopropane] | nanomolar inhibitor; also recorded: nanomolar concentrations | much less effective | 44% | completely inhibited | reversed the growth arrest | ~95% | 100% | 1000 times | 33 ± 2 µM | about 10% | – | – |
| Cc1ncc(COP(=O)(O)O)c(C=O)c1O [PLP, pyridoxal-5’-phosphate] | – | – | – | – | – | – | – | – | – | – | 0.6 µM | 0.3 µM |
